Results taken from patent publication US9309242B2, “Substituted pyrido[2,3-b]pyrazines as FGFR kinase inhibitors” (priority 2011, dated 2016).

What was measured:
FGFR2 (h) = FGFR2 (h) (Homo sapiens, UniProt P21802); assay: FGFR2 (enzymatic assay), TR-FRET; assay type: biochemical; details: enzymatic assay; read-out: FGFR 2 pIC50 (converted)
Summary of the method: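 hFGFR2 150 ng/ml; Btn-Flt3 500 nM; ATP 0.4 μM; 50 mM HEPES pH 7.5, 6 mM MnCl2, 1 mM DTT, 0.1 mM Na3VO4, 0.01% Triton-X-100; 1% DMSO final.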

[1] = biological target: T1, Ba/F3-FGFR1-transfected cells (Homo sapiens, UniProt P11362); assay: Ba/F3-FGFR1 (minus IL3) cellular proliferation assay, Alamar Blue; assay type: cell-based
T1 construct: BAF3-FGFR1 (MIN IL3) pIC50; other: minus IL3
Summary of the method: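 Compound is dispensed first, then FGFR1-transfected Ba/F3 cells are added at 20000 per well in phenol red-free RPMI-1640 containing 10% FBS. After 24 h at 37 °C, Alamar Blue is added for 4 h and fluorescence is measured at 540/590 nm.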

[2] = test system: Ba/F3-KDR-transfected cells; assay: Ba/F3-KDR (plus IL3) cellular proliferation assay, counterscreen with 10 ng/ml murine IL3; assay type: cell-based; details: plus IL3 (10 ng/ml murine IL3, counterscreen); read-out: BAF3-KDR (PLUS IL3) pIC50 (converted)
Summary of the method: (§1)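 Read-out: resazurin-based Alamar Blue fluorescence (ex. 540, em. 590 nm) after 4 h. Before that, cells were incubated with compound for 24 h at 37° C. The counterscreen ran identically but with IL3 supplemented.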

[3] = biological target: T2, Ba/F3-FGFR3-transfected cells (Homo sapiens, UniProt P22607); assay: Ba/F3-FGFR3 (minus IL3) cellular proliferation assay, Alamar Blue; assay type: cell-based
T2 construct: BAF3-FGFR3 (MIN IL3) pIC50; other: minus IL3
T2 sequence (P22607 whole entry, change not shown): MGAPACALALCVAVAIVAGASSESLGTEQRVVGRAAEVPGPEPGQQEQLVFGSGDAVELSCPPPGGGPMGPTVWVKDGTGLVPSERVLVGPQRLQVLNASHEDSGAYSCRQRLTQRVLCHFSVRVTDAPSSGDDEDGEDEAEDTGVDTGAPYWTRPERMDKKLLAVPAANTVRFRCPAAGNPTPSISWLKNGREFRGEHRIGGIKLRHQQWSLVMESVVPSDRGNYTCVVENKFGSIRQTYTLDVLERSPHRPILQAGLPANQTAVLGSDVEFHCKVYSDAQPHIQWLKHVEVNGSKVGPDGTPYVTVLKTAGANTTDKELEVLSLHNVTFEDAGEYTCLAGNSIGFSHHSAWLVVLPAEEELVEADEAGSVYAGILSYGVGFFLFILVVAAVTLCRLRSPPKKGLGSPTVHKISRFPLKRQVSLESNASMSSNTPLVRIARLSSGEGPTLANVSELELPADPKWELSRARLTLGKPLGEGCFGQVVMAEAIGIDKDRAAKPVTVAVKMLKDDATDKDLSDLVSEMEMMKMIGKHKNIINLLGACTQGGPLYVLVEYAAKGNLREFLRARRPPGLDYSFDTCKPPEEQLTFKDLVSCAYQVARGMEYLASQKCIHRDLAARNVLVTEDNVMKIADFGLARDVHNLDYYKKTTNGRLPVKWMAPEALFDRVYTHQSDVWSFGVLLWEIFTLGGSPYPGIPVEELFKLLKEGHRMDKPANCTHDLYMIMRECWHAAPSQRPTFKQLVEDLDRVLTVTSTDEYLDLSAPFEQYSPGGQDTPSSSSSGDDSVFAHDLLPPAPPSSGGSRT
Summary of the method: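 Compound dilutions were dispensed first, then 20000 FGFR3-transfected Ba/F3 cells per well in serum-containing RPMI-1640 were added. After 24 h incubation at 37° C, Alamar Blue was applied for 4 h before relative fluorescence units were recorded. In the minus-IL3 format cells grow without cytokine; the other format contains 10 ng/ml murine IL3.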

[4] = biological target: T3, Ba/F3-KDR-transfected cells (Homo sapiens, UniProt P35968); assay: Ba/F3-KDR (minus IL3) cellular proliferation assay, Alamar Blue; assay type: cell-based
T3 construct: BAF3-KDR (MIN IL3) pIC50; other: minus IL3
T3 sequence (P35968 whole entry, change not shown): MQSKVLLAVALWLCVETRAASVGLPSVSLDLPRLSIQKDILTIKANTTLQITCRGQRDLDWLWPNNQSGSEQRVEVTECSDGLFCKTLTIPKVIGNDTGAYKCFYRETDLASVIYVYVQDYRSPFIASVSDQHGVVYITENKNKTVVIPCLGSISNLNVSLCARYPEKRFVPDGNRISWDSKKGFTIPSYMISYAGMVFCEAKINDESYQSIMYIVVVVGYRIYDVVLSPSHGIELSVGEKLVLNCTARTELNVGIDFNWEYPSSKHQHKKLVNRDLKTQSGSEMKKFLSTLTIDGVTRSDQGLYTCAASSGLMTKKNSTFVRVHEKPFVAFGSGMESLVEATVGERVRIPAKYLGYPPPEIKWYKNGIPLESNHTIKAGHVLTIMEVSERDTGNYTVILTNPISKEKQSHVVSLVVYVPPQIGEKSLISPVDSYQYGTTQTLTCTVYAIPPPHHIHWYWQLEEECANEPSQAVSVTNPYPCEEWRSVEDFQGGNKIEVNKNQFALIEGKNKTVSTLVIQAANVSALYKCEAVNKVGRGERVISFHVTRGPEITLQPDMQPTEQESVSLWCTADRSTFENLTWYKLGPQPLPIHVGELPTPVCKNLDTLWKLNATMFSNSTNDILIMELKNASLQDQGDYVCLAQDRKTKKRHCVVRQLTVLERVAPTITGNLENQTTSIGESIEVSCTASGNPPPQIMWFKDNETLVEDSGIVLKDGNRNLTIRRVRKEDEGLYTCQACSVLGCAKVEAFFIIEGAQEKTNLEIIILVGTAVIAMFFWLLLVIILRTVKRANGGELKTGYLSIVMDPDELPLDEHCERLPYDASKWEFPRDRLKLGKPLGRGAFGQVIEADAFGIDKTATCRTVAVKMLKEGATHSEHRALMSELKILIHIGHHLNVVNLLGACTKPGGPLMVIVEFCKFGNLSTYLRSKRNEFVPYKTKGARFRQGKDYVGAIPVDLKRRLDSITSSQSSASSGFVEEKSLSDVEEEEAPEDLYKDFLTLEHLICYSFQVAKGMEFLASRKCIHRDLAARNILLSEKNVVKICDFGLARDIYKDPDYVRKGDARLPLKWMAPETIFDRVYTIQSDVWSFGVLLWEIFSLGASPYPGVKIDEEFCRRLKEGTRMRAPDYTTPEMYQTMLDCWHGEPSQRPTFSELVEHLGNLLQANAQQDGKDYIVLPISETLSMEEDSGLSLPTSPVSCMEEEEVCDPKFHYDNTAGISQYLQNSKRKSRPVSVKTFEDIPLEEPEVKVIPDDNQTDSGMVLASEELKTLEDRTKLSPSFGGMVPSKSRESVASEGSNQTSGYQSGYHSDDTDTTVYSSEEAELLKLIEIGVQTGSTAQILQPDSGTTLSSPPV
Summary of the method: as §1

[5] = biological target: Ba/F3-FGFR4-transfected cells (Homo sapiens, UniProt P22455); assay: Ba/F3-FGFR4 cellular proliferation assay, Alamar Blue; assay type: cell-based
Sequence of Ba/F3-FGFR4-transfected cells (P22455 whole entry, change not shown): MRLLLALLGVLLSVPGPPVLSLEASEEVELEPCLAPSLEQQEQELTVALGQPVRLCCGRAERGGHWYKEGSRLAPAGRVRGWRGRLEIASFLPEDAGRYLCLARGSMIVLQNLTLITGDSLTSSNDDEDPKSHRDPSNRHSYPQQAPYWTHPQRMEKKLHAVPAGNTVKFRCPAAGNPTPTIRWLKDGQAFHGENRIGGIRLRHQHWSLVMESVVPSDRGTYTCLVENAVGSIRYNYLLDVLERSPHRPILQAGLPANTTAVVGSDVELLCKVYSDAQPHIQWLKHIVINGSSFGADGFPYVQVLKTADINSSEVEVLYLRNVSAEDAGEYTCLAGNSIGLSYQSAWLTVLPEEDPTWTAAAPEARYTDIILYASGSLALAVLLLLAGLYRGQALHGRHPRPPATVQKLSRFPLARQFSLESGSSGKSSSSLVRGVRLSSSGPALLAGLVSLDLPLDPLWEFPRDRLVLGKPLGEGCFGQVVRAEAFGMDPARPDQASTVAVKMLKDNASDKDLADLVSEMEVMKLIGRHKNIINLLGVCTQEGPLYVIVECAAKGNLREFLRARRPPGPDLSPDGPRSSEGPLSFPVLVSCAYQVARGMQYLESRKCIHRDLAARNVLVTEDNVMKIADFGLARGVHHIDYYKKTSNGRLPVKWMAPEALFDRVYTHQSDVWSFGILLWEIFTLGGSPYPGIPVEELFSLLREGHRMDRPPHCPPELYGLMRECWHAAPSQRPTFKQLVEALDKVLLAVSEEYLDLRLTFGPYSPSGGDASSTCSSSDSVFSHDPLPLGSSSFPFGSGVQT
Summary of the method: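 Fluorescence read-out (ex. 540 nm, em. 590 nm) of resazurin-based Alamar Blue after 4 h, following 24 h compound exposure of Ba/F3-FGFR4-transfected cells (20000/well) at 37° C, 5% CO2.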

[6] = test system: Ba/F3-FGFR1-transfected cells; assay: Ba/F3-FGFR1 (plus IL3) cellular proliferation assay, counterscreen with 10 ng/ml murine IL3; assay type: cell-based; details: plus IL3 (10 ng/ml murine IL3, counterscreen); read-out: BAF3-FGFR1 (PLUS IL3) pIC50 (converted)
Summary of the method: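 Proliferation read-out: resazurin-based Alamar Blue fluorescence (540/590 nm) after 4 h, following 24 h compound treatment of 20000 Ba/F3-FGFR1 cells per well in 10% FBS RPMI at 37° C. IL3 counterscreen used the same protocol plus 10 ng/ml murine IL3.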

FGFR1 (h) = FGFR1 (h) (Homo sapiens, UniProt P11362); assay: FGFR1 (enzymatic assay), TR-FRET; assay type: biochemical; details: read-out: FGFR 1 pIC50 (converted)
Sequence of FGFR1 (h) (P11362 22-822): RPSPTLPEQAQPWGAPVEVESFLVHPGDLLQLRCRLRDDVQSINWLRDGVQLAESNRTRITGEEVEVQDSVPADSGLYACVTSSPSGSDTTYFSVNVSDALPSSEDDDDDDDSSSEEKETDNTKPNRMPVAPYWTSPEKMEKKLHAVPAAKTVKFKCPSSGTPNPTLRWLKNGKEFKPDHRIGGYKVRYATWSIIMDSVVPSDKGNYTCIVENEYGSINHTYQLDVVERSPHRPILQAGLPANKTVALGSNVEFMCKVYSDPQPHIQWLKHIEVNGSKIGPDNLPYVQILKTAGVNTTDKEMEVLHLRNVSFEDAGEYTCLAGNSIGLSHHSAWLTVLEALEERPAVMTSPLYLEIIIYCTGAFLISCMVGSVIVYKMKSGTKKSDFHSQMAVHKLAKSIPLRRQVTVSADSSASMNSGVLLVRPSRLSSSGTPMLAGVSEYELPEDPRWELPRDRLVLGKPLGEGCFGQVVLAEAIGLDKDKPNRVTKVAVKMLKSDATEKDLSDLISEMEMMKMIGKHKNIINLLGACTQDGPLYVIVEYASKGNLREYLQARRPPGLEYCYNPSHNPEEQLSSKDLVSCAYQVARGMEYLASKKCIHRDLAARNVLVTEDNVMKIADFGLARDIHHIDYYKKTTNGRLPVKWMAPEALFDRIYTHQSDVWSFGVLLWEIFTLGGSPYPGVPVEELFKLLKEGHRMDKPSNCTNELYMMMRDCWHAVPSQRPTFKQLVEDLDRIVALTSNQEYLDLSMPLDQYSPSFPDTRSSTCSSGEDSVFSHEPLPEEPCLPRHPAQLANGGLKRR

FGFR3 (h) = FGFR3 (h) (Homo sapiens, UniProt P22607); assay: FGFR3 (enzymatic assay), TR-FRET; assay type: biochemical; details: read-out: FGFR 3 pIC50 (converted)
From the text: Time-Resolved Fluorescence Resonance Energy Transfer (TR-FRET) signal (ex340 nm.

Sequence of FGFR2 (h) (P21802 22-821): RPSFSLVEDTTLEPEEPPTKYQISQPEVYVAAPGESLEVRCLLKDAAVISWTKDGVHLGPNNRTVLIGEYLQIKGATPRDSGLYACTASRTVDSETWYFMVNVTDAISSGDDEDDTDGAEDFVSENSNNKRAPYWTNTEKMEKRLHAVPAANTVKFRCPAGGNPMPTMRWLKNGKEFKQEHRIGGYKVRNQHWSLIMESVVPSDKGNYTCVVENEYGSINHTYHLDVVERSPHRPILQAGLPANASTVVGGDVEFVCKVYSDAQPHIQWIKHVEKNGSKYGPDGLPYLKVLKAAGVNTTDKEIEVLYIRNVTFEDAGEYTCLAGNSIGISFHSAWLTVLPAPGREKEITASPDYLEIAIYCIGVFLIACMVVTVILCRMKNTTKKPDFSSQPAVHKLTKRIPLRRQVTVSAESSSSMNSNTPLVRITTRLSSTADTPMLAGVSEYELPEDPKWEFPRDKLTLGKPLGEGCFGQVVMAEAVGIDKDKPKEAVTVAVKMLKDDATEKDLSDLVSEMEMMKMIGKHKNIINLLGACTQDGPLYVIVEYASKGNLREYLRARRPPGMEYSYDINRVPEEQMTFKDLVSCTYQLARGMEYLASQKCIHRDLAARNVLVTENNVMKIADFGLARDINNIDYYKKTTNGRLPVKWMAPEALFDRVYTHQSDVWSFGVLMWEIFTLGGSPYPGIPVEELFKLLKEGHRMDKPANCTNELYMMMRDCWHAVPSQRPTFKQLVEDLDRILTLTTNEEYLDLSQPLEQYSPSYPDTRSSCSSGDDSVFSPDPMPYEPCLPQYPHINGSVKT

| SMILES | IC50 (FGFR2 (h)) [nM] | BAF3-FGFR1 (MIN IL3) pIC50 [1] | IC50 [2] [nM] | BAF3-FGFR3 (MIN IL3) pIC50 [3] | BAF3-KDR (MIN IL3) pIC50 [4] | BAF3-FGFR4 pIC50 [5] | IC50 [6] [nM] | IC50 (FGFR1 (h)) [nM] | IC50 (FGFR3 (h)) [nM] |
| --- | --- | --- | --- | --- | --- | --- | --- | --- | --- |
| COc1cc(OC)c(F)c(N(CCO)c2ccc3ncc(-c4cnn(CCO)c4)nc3n2)c1 [Compound 233] | 1.7 | 7.49 | > 10000 | 7.40 | 5.90 | 6.91 | > 10000 | 0.759 | 0.776 |
| COc1cc(OC)c(F)c(N(CCNC2COC2)c2ccc3ncc(-c4cnn(C)c4)nc3n2)c1F (single isomer, unassigned) [Compound 162] | 2.19 | 7.88 | > 10000 | 7.95 | 6.61 | ~7.56 | > 10000 | 1.17 | 1.41 |
| COc1cc(/N=c2\ccc3ncc(-c4cnn(C)c4)nc3n2Cc2cn[nH]c2)c(F)c(OC)c1 [Compound 155] | 1.2 | 8.13 | > 10000 | 8.07 | 6.88 | 8.09 | > 10000 | 0.55 | 0.407 |
| COc1cc(OC)cc(N(Cc2nnc(N)o2)c2ccc3ncc(-c4cnn(C)c4)nc3n2)c1 [Compound 188] | 1.35 | 6.78 | > 10000 | ~7.15 | 5.63 | 6.62 | > 10000 | 1.66 | 0.933 |
| COc1cc(OC)c(F)c(N(CC(=O)O)c2ccc3ncc(-c4cnn(C)c4)nc3n2)c1 [Compound 231] | 6.31 | 5.27 | > 10000 | 5.75 | <5 | 5.02 | > 10000 | 4.79 | 3.98 |
| COc1cc(/N=c2\ccc3ncc(-c4cnn(C)c4)nc3n2Cc2c(C)noc2C)c(F)c(OC)c1 [Compound 179] | 2.57 | <5.52 | > 3020 | <5.52 | <5.52 | <5.52 | > 3020 | 2.95 | 1.26 |
| COc1cc(OC)cc(N(Cc2nn[nH]n2)c2ccc3ncc(-c4cnn(C)c4)nc3n2)c1 [Compound 197] | 11.2 | <5 | > 10000 | <5 | <5 | <5 | > 10000 | 22.4 | 14.5 |
| COc1cc(OC)cc(N(Cc2ncc[nH]2)c2ccc3ncc(-c4ccncc4)nc3n2)c1 [Compound 202] | 1.74 | 7.47 | > 10000 | ~7.67 | 5.24 | 6.81 | > 10000 | 1.12 | 1.62 |
| COc1cc(OC)c(F)c(N(CCN2CCOCC2)c2ccc3ncc(-c4cnn(C)c4)nc3n2)c1 [Compound 149] | 3.09 | 7.45 | > 10000 | ~7.66 | 5.89 | 7.12 | > 10000 | 2.45 | 2.63 |
| COc1cc(OC)cc(N(Cc2ncc[nH]2)c2ccc3ncc(-c4ccccc4)nc3n2)c1 [Compound 152] | 1.48 | 7.96 | > 10000 | 8.08 | 5.56 | 7.46 | > 10000 | 1.07 | 1.15 |
| COc1cc(OC)c(F)c(N(CCN(C2COC2)C2COC2)c2ccc3ncc(-c4cnn(C)c4)nc3n2)c1 [Compound 222] | 5.25 | 7.12 | > 10000 | ~7.19 | 5.68 | 6.55 | > 10000 | 2.24 | 3.89 |
| COc1cc(/N=c2\ccc3ncc(-c4cnn(C)c4)nc3n2CCN2CCOCC2)cc(OC)c1 [Compound 147] | 2.04 | 7.28 | > 10000 | 7.23 | 6.17 | 6.85 | > 10000 | 1.51 | 1.62 |
| COc1cc(/N=c2\ccc3ncc(-c4cnn(C)c4)nc3n2CC2CCC(=O)N2CCO)c(F)c(OC)c1 (single isomer, unassigned) [Compound 219] | 2.24 | 7.77 | > 10000 | 7.66 | 6.38 | 6.78 | > 10000 | 0.813 | 1.29 |
| COc1cc(OC)c(F)c(N(Cc2ncc[nH]2)c2ccc3ncc(-c4cnn(CC(C)(C)O)c4)nc3n2)c1 [Compound 240] | 2.57 | 8.57 | > 10000 | ~8.52 | 6.89 | 7.87 | > 10000 | 0.912 | 1.82 |
| COc1cc(OC)c(F)c(N(CC#N)c2ccc3ncc(-c4cnn(C)c4)nc3n2)c1F [Compound 173] | 1.1 | 8.00 | > 10000 | ~8.04 | 5.78 | 7.61 | > 10000 | ~0.977 | 0.437 |
